Laboratory results: ChEMBL document CHEMBL4392845, “Structure-activity relationship study of estrogen receptor down-regulators with a diphenylmethane skeleton” (Bioorg Med Chem, 2019)

What was measured:
Estrogen receptor [1] = molecular target: T1, Estrogen receptor (Homo sapiens, UniProt P03372)
T1 sequence (P03372 whole entry): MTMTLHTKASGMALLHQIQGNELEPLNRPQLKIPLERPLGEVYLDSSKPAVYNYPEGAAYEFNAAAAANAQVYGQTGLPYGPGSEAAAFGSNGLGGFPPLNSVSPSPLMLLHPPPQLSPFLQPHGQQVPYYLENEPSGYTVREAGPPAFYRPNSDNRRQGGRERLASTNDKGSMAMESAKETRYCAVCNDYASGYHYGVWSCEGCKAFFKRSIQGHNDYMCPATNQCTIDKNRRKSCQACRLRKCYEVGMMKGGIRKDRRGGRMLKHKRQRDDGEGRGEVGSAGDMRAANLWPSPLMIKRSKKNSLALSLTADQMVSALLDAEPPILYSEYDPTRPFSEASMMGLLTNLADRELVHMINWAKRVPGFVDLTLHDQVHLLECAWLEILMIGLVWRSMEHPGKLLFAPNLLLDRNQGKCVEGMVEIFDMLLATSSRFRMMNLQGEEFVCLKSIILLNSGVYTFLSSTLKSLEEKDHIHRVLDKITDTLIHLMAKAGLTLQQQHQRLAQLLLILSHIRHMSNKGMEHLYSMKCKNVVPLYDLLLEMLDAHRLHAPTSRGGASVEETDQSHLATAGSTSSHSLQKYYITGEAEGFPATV
Description: (§1) Selective estrogen receptor down-regulator activity at FLAG-tagged ERalpha (unknown origin) expressed in HEK293 cells assessed as induction of ERalpha degradation by luciferase reporter gene assay

Estrogen receptor [2] = molecular target: T1, Estrogen receptor; remark: listed apart in the source
Description: Binding affinity to GST-tagged human ER alpha ligand-binding domain by TR-FRET assay

Estrogen receptor [3] = molecular target: T1, Estrogen receptor; remark: listed apart in the source
Description: Antagonist activity at FLAG-tagged ERalpha (unknown origin) expressed in HEK293 cells assessed as reduction in E2-induced ER-alpha-mediated transcriptional activity by luciferase reporter gene assay

Estrogen receptor [4] = molecular target: T1, Estrogen receptor; test: Agonist activity at FLAG-tagged ERalpha (unknown origin) expressed in HEK293 cells assessed as induction of ER-alpha-mediated transcriptional activity by luciferase reporter gene assay; format: cell-based
Estrogen receptor [5] = molecular target: T1, Estrogen receptor; settings: hek293
Description: as §1

**Q.** For `Oc1ccc(Cc2ccc(O)cc2)cc1`, which EC50 (Estrogen receptor [1]) is on record?
**A.** Its EC50 is over 10000 nM.

**Q.** What about the IC50 (Estrogen receptor [2]) of the same molecule?
**A.** Its IC50 is 1430 nM.

**Q.** And the IC50 (Estrogen receptor [3])?
**A.** Its IC50 is over 10000 nM.

**Q.** Which EC50 (Estrogen receptor [1]) does the source give for `CCC(=C(c1ccc(O)cc1)c1ccc(O)cc1)c1ccccc1` here?
**A.** The EC50 was 1 nM.

**Q.** And the IC50 (Estrogen receptor [2])?
**A.** Its IC50 is 0.06 nM.

**Q.** And the IC50 (Estrogen receptor [3])?
**A.** Its IC50 is 3.3 nM.

**Q.** For `CCC(CC)(c1ccc(O)cc1)c1ccc(O)cc1`, which EC50 (Estrogen receptor [1]) is on record?
**A.** The EC50 was 181 nM.

**Q.** What about the IC50 (Estrogen receptor [2]) of the same molecule?
**A.** The IC50 was 24 nM.

**Q.** With `Cc1cc(Cc2ccc(O)c(C)c2)ccc1O` as the molecule, how does the EC50 (Estrogen receptor [1]) read?
**A.** Its EC50 is over 10000 nM.

**Q.** And the IC50 (Estrogen receptor [2])?
**A.** Its IC50 is 790 nM.

**Q.** What about the EC50 (Estrogen receptor [4]) of the same molecule?
**A.** The EC50 was over 10000 nM.

**Q.** And the IC50 (Estrogen receptor [3])?
**A.** The IC50 was over 10000 nM.

**Q.** For `CCC(CC)(c1ccc(O)c(C)c1)c1ccc(O)c(C)c1`, which EC50 (Estrogen receptor [1]) is on record?
**A.** The EC50 was 28 nM.

**Q.** And the IC50 (Estrogen receptor [2])?
**A.** The IC50 was 1.4 nM.

**Q.** For `CCCC(CCC)(c1ccc(O)c(C)c1)c1ccc(O)c(C)c1`, which EC50 (Estrogen receptor [1]) is on record?
**A.** The EC50 was 10 nM.

**Q.** And the IC50 (Estrogen receptor [2])?
**A.** The IC50 was 1.3 to 3.2 nM.

**Q.** What does the source list for `CCCCC(CCCC)(c1ccc(O)c(C)c1)c1ccc(O)c(C)c1`?
**A.** EC50 (Estrogen receptor [1]): 88 nM; IC50 (Estrogen receptor [2]): 26 nM

**Q.** Which EC50 (Estrogen receptor [1]) does the source give for `CCc1cc(C(CC)(CC)c2ccc(O)c(CC)c2)ccc1O` here?
**A.** Its EC50 is 729 nM.

**Q.** What about the IC50 (Estrogen receptor [2]) of the same molecule?
**A.** The IC50 was 280 nM.

**Q.** Which EC50 (Estrogen receptor [1]) does the source give for `CCCC(CCC)(c1ccc(O)cc1)c1ccc(O)cc1` here?
**A.** The EC50 was 65 nM.

**Q.** What about the IC50 (Estrogen receptor [2]) of the same molecule?
**A.** Its IC50 is 5.9 nM.

**Q.** With `CCCCC(CCCC)(c1ccc(O)cc1)c1ccc(O)cc1` as the molecule, how does the EC50 (Estrogen receptor [1]) read?
**A.** Its EC50 is 606 nM.

**Q.** And the IC50 (Estrogen receptor [2])?
**A.** Its IC50 is 100 nM.

**Q.** `CCCC(CCC)(c1ccc(O)c(CC)c1)c1ccc(O)c(CC)c1` was tested. Which EC50 (Estrogen receptor [1]) did it give?
**A.** The EC50 was over 10000 nM.

**Q.** And the IC50 (Estrogen receptor [2])?
**A.** Its IC50 is 1280 nM.

**Q.** What does the source list for `CCCC(CCC)(c1ccc(O)c(C)c1)c1ccc(OCCN(C)C)c(C)c1`?
**A.** IC50 (Estrogen receptor [2]): 52 nM; IC50 (Estrogen receptor [3]): 36 nM; EC50 (Estrogen receptor [5]): Not Active

**Q.** Which results are given for `CCCC(CCC)(c1ccc(O)c(C)c1)c1ccc(OCC(=O)OC(C)C)c(C)c1`?
**A.** EC50 (Estrogen receptor [1]): 116 nM; IC50 (Estrogen receptor [2]): 90 nM; IC50 (Estrogen receptor [3]): 99 nM

**Q.** `CCCC(CCC)(c1ccc(O)c(C)c1)c1ccc(N(C)C)c(C)c1` was tested. Which EC50 (Estrogen receptor [1]) did it give?
**A.** Its EC50 is 80 nM.

**Q.** And the IC50 (Estrogen receptor [2])?
**A.** Its IC50 is 77 nM.

**Q.** And the EC50 (Estrogen receptor [4])?
**A.** The EC50 was 20 nM.

**Q.** And the IC50 (Estrogen receptor [3])?
**A.** Its IC50 is 213 nM.

**Q.** Which EC50 (Estrogen receptor [1]) does the source give for `CCCC(CCC)(c1ccc(O)c(C)c1)c1ccc(NC)c(C)c1` here?
**A.** The EC50 was 545 nM.

**Q.** And the IC50 (Estrogen receptor [2])?
**A.** The IC50 was 7.5 nM.

**Q.** What about the IC50 (Estrogen receptor [3]) of the same molecule?
**A.** The IC50 was 207 nM.

**Q.** `CCCC(CCC)(c1ccc(O)c(C)c1)c1ccc(OCC(=O)N(C)C)c(C)c1` was tested. Which EC50 (Estrogen receptor [1]) did it give?
**A.** The EC50 was 204 nM.

**Q.** And the IC50 (Estrogen receptor [2])?
**A.** Its IC50 is 99 nM.

**Q.** What about the IC50 (Estrogen receptor [3]) of the same molecule?
**A.** The IC50 was 94 nM.

**Q.** With `CCCC(CCC)(c1ccc(N)c(C)c1)c1ccc(O)c(C)c1` as the molecule, how does the EC50 (Estrogen receptor [1]) read?
**A.** Its EC50 is 9 nM.

**Q.** What about the IC50 (Estrogen receptor [2]) of the same molecule?
**A.** The IC50 was 1.7 nM.

**Q.** And the EC50 (Estrogen receptor [4])?
**A.** The EC50 was 1.3 nM.

**Q.** What about the IC50 (Estrogen receptor [3]) of the same molecule?
**A.** The IC50 was 8.1 nM.

**Q.** `CCCC(CCC)(c1ccc(O)c(C)c1)c1ccc(OCCC(C)C)c(C)c1` was tested. Which EC50 (Estrogen receptor [1]) did it give?
**A.** Its EC50 is 427 nM.

**Q.** And the IC50 (Estrogen receptor [2])?
**A.** The IC50 was 160 nM.

**Q.** And the IC50 (Estrogen receptor [3])?
**A.** The IC50 was 1200 nM.

**Q.** Which EC50 (Estrogen receptor [1]) does the source give for `CCCC(CCC)(c1ccc(O)c(C)c1)c1ccc(OCC(=O)NC)c(C)c1` here?
**A.** Its EC50 is 104 nM.

**Q.** What about the IC50 (Estrogen receptor [2]) of the same molecule?
**A.** Its IC50 is 43 nM.

**Q.** And the IC50 (Estrogen receptor [3])?
**A.** Its IC50 is 31 nM.

**Q.** `CCCC(CCC)(c1ccc(O)c(C)c1)c1ccc(OCC(=O)OCC)c(C)c1` was tested. Which EC50 (Estrogen receptor [1]) did it give?
**A.** Its EC50 is 93 nM.

**Q.** And the IC50 (Estrogen receptor [2])?
**A.** Its IC50 is 22 nM.

**Q.** What about the IC50 (Estrogen receptor [3]) of the same molecule?
**A.** Its IC50 is 44 nM.

**Q.** For `CCCC(CCC)(c1ccc(O)c(C)c1)c1ccc(NC(C)=O)c(C)c1`, which EC50 (Estrogen receptor [1]) is on record?
**A.** Its EC50 is over 10000 nM.

**Q.** What about the IC50 (Estrogen receptor [2]) of the same molecule?
**A.** The IC50 was 354 nM.

**Q.** And the IC50 (Estrogen receptor [3])?
**A.** The IC50 was 213 nM.

**Q.** Which results are given for `CCCC(CCC)(c1ccc(O)c(C)c1)c1ccc(/C=C/C(=O)O)c(C)c1`?
**A.** EC50 (Estrogen receptor [1]): 437 nM; IC50 (Estrogen receptor [2]): 37 nM; IC50 (Estrogen receptor [3]): 522 nM

**Q.** `CCCC(CCC)(c1ccc(O)c(C)c1)c1ccc(/C=C/C(=O)OCC)c(C)c1` was tested. Which EC50 (Estrogen receptor [1]) did it give?
**A.** Its EC50 is 193 nM.

**Q.** And the IC50 (Estrogen receptor [2])?
**A.** Its IC50 is 303 nM.

**Q.** And the IC50 (Estrogen receptor [3])?
**A.** Its IC50 is 561 nM.
